Source: ChEMBL document CHEMBL1201862, “PubChem BioAssay data set” (2004)
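Where inhibition never reached the appropriate level, the endpoint shown equals the highest concentration tested. Otherwise, values were interpolated linearly from a five-concentration, 48-hour dose response in 96-well plates. Here, GI50 denotes the concentration required for 50% inhibition of growth.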 The source made the active and inactive calls. No stated cut-off is given here; in the data, active = GI50 up to about 1.1 µM and inactive = higher.

Tests used:
Assay in all cases: NCI-60 cell line screen, 48 h
[1] = test system: BT-549
[2] = test system: CCRF-CEM
[3] = test system: COLO 205
[4] = test system: EKVX
[5] = test system: HCT-116
[6] = test system: HCT-15
[7] = test system: HOP-62
[8] = test system: Hs-578T
[9] = test system: IGROV-1
[10] = test system: K562
[11] = test system: Malme-3M
[12] = test system: NCI-H522
[13] = test system: OVCAR-5
[14] = test system: RPMI-8226
[15] = test system: SK-MEL-28
[16] = test system: SK-OV-3
[17] = test system: SNB-19
[18] = test system: SNB-75
[19] = test system: RXF 393

| Structure (SMILES) | GI50 [1] | GI50 [2] | GI50 [3] | GI50 [4] | GI50 [5] | GI50 [6] [µM] | GI50 [7] | GI50 [8] | GI50 [9] | GI50 [10] | GI50 [11] | GI50 [12] | GI50 [13] | GI50 [14] | GI50 [15] | GI50 [16] | GI50 [17] | GI50 [18] | GI50 [19] |
| --- | --- | --- | --- | --- | --- | --- | --- | --- | --- | --- | --- | --- | --- | --- | --- | --- | --- | --- | --- |
| COc1ccc2cc(NC(=O)N/N=C\c3ccc(Cl)cc3)ccc2c1 | > 100 µM (inactive) | > 100 µM (inactive) | > 100 µM (inactive) | > 100 µM (inactive) | > 100 µM (inactive) | > 100 | 27.5 µM (inactive) | 24 µM (inactive) | 88.7 µM (inactive) | > 100 µM (inactive) | 34 µM (inactive) | > 100 µM (inactive) | > 100 µM (inactive) | > 100 µM (inactive) | > 100 µM (inactive) | > 100 µM (inactive) | 46.2 µM (inactive) | 72.3 µM (inactive) | – |
| C=C(Br)C(Cl)(CBr)CCC(Br)C(C)(C)Cl (stereo unspecified) | > 10 µM (inactive) | > 10 µM (inactive) | > 10 µM (inactive) | > 10 µM (inactive) | > 10 µM (inactive) | – | > 10 µM (inactive) | – | > 10 µM (inactive) | > 10 µM (inactive) | – | > 10 µM (inactive) | > 10 µM (inactive) | 9.2 µM (inactive) | > 10 µM (inactive) | > 10 µM (inactive) | > 10 µM (inactive) | > 10 µM (inactive) | > 10 µM (inactive) |
| Cc1cc(S(=O)(=O)Nc2nc3ccccc3c(=O)n2N)c(S)cc1Cl | 47.6 µM (inactive) | 62.5 µM (inactive) | > 100 µM (inactive) | 43.6 µM (inactive) | 32 µM (inactive) | 35.5 | 14.8 µM (inactive) | – | 43.8 µM (inactive) | 47.2 µM (inactive) | 23.1 µM (inactive) | – | 55.5 µM (inactive) | 34.7 µM (inactive) | 67.9 µM (inactive) | 32.3 µM (inactive) | – | – | – |
| COC(=O)C1CCC(=O)N1C(c1ccccc1)c1ccc(OC)c(OC)c1 (stereo unspecified) | > 100 µM (inactive) | > 10 µM (inactive) | > 100 µM (inactive) | > 100 µM (inactive) | > 100 µM (inactive) | > 100 | > 100 µM (inactive) | > 100 µM (inactive) | > 100 µM (inactive) | > 100 µM (inactive) | > 100 µM (inactive) | > 100 µM (inactive) | > 100 µM (inactive) | > 100 µM (inactive) | > 100 µM (inactive) | > 100 µM (inactive) | > 100 µM (inactive) | 15.7 µM (inactive) | – |
| O=C(N(C1=CCCC1)N(c1ccccc1)c1ccccc1)C(F)(F)F | 29.9 µM (inactive) | 23.4 µM (inactive) | 18.6 µM (inactive) | 17.5 µM (inactive) | 21.5 µM (inactive) | 21.4 | 25.5 µM (inactive) | – | – | 19.5 µM (inactive) | 3.76 µM (inactive) | 10.4 µM (inactive) | 27 µM (inactive) | – | 28.4 µM (inactive) | 40.1 µM (inactive) | 30 µM (inactive) | 20 µM (inactive) | 17 µM (inactive) |
| O=C1C=Cc2c(Cl)sc(Cl)c21 | 3.08 µM (inactive) | 0.234 µM (active) | 1.45 µM (inactive) | 3.27 µM (inactive) | 0.752 µM (active) | 1.51 | 1.74 µM (inactive) | – | 1.63 µM (inactive) | 0.767 µM (active) | – | – | 4.3 µM (inactive) | 0.675 µM (active) | 1.73 µM (inactive) | 15.2 µM (inactive) | 4.63 µM (inactive) | 3.61 µM (inactive) | 2.09 µM (inactive) |
| COC(=O)n1c(C)c(C=O)c2ccc(OC)cc21 | 26.7 µM (inactive) | 32.4 µM (inactive) | 46.9 µM (inactive) | 46.5 µM (inactive) | 34.8 µM (inactive) | 31.1 | 16.4 µM (inactive) | – | 38.6 µM (inactive) | 38 µM (inactive) | 99.8 µM (inactive) | 38.5 µM (inactive) | 54.7 µM (inactive) | – | – | 33.8 µM (inactive) | 42.7 µM (inactive) | 31.3 µM (inactive) | 30.6 µM (inactive) |
| COC(=O)/C(=N\N)C(C(=O)C(=O)Nc1cccc([N+](=O)[O-])c1)c1nc2ccc(C(=O)c3ccccc3)cc2nc1O (stereo unspecified) | > 100 µM (inactive) | 22.3 µM (inactive) | > 100 µM (inactive) | > 100 µM (inactive) | > 100 µM (inactive) | > 100 | 73.1 µM (inactive) | > 100 µM (inactive) | > 100 µM (inactive) | – | – | 72.1 µM (inactive) | > 100 µM (inactive) | – | > 100 µM (inactive) | 93.8 µM (inactive) | > 100 µM (inactive) | > 100 µM (inactive) | 16.9 µM (inactive) |
| N#CC1=CNc2sccc2S1(=O)=O | > 100 µM (inactive) | – | > 100 µM (inactive) | > 100 µM (inactive) | 89.7 µM (inactive) | 61.9 | > 100 µM (inactive) | > 100 µM (inactive) | > 100 µM (inactive) | – | > 100 µM (inactive) | > 100 µM (inactive) | > 100 µM (inactive) | > 100 µM (inactive) | > 100 µM (inactive) | > 100 µM (inactive) | > 100 µM (inactive) | > 100 µM (inactive) | – |
